Publication doi:10.1101/2023.10.24.563163v2, “Targeting cancer with small molecule pan-KRAS degraders” (biorxiv, 2024)
Where two headings read alike, the source gives them in different places.

Columns and labels:
[1] = molecular target: T1, KRAS^G12D (Homo sapiens, UniProt P01116, G12D); design: endogenous; KRAS degradation by capillary electrophoresis immunodetection; conditions: degrader; read-out: DC50 24 h GP5d
Description: (§1) Protein Detection by Capillary Electrophoresis Cells (50 000) were seeded the day before treatment into 96-well clear-flat bottom plates and incubated overnight (37 °C, humidified tissue culture incubator, 5% CO2). Compounds were added from DMSO stock solution using a digital dispenser and cells are incubated at 37 °C as specified (24 hours for KRAS degradation, 6 hours for determination of pERK levels). At the end of the incubation, medium was removed, cells washed with ice cold PBS, PBS removed and 50 µL lysis buffer (Meso Scale Discovery #R60TX-2) supplemented with 1:100 protease inhibitor solution, 1:100 phosphatase inhibitor I, 1:100 phosphatase inhibitor II (Meso Scale Discovery #R70AA-1), 0.5 µL/mL Benzonase (Novagen #70664-3) and 10 mM dithiothreitol added to each well. Plates with lysis buffer were immediately transferred to -80 °C freezer for at least 2 hours and then thawed on ice. Lysates were transferred to a 96 well V-bottom plate and insoluble debris was pelleted by centrifugation for 20 min. at 4 000 rpm. 40 µL of the supernatant were transferred to a fresh Eppendorf PCR plate. Analysis of protein levels was conducted using the Wes System, ProteinSimple (https://www.bio-techne.com/) as specified by the manufacturer. Briefly, Wes Master Mix (12-230 kDa WES Separation Module, 8 × 25 capillary cartridges, ProteinSimple #SM-W004) and molecular weight markers were prepared as specified in the manufacturer’s recommendations. To detect primary antibodies, anti-rabbit (Protein Simple #DM-001) or anti-mouse (Protein Simple #DM-002) detection modules were used. 7.2 µL lysate + 1.8 µL master mix were combined and heated to 95 °C for 5 min.

[2] = molecular target: T1, KRAS^G12D; experiment: cell-based; design: endogenous; KRAS degradation by capillary electrophoresis immunodetection; conditions: GP2d; read-out: Dmax 24 h GP2d [%]
Description: as §1, with “5 min. […] Next, we set out to test the ability of a single pan-KRAS degrading molecule, compound 4, to selectively suppress oncogenic signaling and proliferation in cancer cell lines driven by diverse KRAS mutants. To this end, we first confirmed degradation of KRAS by compound 4 in KRAS-dependent (GP2d, SW620 and NCI-H358 expressing KRAS^G12D, - G12V or -G12C, respectively) as well as in KRAS independent (A-375, HEK293) cell lines (Fig. 3A, fig. S4A). […] Both inhibition and degradation repressed the established markers of MAPK signaling pERK (fig. S4B-D) and DUSP6 (Fig. 3B, fig. S4E) in KRAS dependent cell lines. […] Neither degradation nor inhibition had appreciable antiproliferative effects in the KRAS independent cell lines A-375 and HEK293 (Fig. 3C, fig. S4F).” for “5 min.”

[3] = molecular target: T2, VCB:KRAS ternary complex partners (Homo sapiens, UniProt P01116+P40337, P01116:C118S/P01116:G12D); experiment: biochemical; design: FP displacement of FAM-HIF-1alpha peptide from VCB, with or without saturating KRAS G12D; conditions: FP, saturating KRAS G12D
T2 construct: VCB (Avi-tagged, biotinylated for SPR) plus KRAS 1-169 C118S GDP; E. coli, His6 tags removed; with Elongin-C; Elongin-B
T2 sequence (Q15370 1-104): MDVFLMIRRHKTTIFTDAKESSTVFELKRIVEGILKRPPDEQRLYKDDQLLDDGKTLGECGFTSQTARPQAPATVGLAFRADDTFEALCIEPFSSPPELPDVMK
T2 sequence (P01116 1-169 G12D/C118S): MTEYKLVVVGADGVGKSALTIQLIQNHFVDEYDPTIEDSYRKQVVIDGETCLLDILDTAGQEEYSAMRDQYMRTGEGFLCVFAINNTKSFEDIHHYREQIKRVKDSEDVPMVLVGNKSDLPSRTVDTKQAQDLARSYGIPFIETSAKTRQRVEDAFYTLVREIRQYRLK
T2 sequence (Q15369 17-112, further chain): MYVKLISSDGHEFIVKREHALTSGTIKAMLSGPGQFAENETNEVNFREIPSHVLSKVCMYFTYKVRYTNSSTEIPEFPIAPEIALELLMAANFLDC
T2 sequence (P40337 54-213): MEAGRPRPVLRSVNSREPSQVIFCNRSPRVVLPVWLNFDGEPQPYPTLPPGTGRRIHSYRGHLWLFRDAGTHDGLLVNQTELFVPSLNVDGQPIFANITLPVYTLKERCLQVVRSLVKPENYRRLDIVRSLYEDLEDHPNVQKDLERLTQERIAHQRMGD

[4] = molecular target: T3, KRAS^WT (Homo sapiens, UniProt P01116); design: KRAS degradation by capillary electrophoresis immunodetection; conditions: read-out: DC50 24 h HEK293
T3 construct: endogenous wild type
T3 sequence (P01116 whole entry): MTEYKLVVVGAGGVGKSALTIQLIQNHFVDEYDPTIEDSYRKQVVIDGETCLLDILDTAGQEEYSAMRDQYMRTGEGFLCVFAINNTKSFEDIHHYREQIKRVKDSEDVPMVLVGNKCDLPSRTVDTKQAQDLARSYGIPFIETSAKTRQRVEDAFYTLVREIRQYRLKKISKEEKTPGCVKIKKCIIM
Description: as §1, with “Briefly, Wes Master Mix (12-230 kDa WES Separation Module, 8 × 25 capillary cartridges, ProteinSimple #SM-W004) and molecular weight markers were prepared as specified in the manufacturer’s recommendations. To detect primary antibodies, anti-rabbit (Protein Simple #DM-001) or anti-mouse (Protein Simple #DM-002) detection modules were used. 7.2 µL lysate + 1.8 µL master mix were combined and heated to 95 °C for 5 min.” left out

[5] = molecular target: T4, KRAS^G12C (Homo sapiens, UniProt P01116, G12C); design: endogenous; KRAS degradation by capillary electrophoresis immunodetection; conditions: read-out: DC50 24 h NCI-H358
T4 sequence (P01116 whole entry G12C): as the sequence (P01116 whole entry) above, with G12C counted along it
Description: as §1, with “Briefly, Wes Master Mix (12-230 kDa WES Separation Module, 8 × 25 capillary cartridges, ProteinSimple #SM-W004) and molecular weight markers were prepared as specified in the manufacturer’s recommendations. To detect primary antibodies, anti-rabbit (Protein Simple #DM-001) or anti-mouse (Protein Simple #DM-002) detection modules were used. 7.2 µL lysate + 1.8 µL master mix were combined and heated to 95 °C for 5 min.” left out

[6] = molecular target: T4, KRAS^G12C; experiment: cell-based; design: endogenous; KRAS degradation by capillary electrophoresis immunodetection; conditions: NCI-H358; read-out: Dmax 24 h NCI-H358 [%]
Description: as §1, with “5 min. […] Next, we set out to test the ability of a single pan-KRAS degrading molecule, compound 4, to selectively suppress oncogenic signaling and proliferation in cancer cell lines driven by diverse KRAS mutants. To this end, we first confirmed degradation of KRAS by compound 4 in KRAS-dependent (GP2d, SW620 and NCI-H358 expressing KRAS^G12D, - G12V or -G12C, respectively) as well as in KRAS independent (A-375, HEK293) cell lines (Fig. 3A, fig. S4A). […] Both inhibition and degradation repressed the established markers of MAPK signaling pERK (fig. S4B-D) and DUSP6 (Fig. 3B, fig. S4E) in KRAS dependent cell lines. […] Neither degradation nor inhibition had appreciable antiproliferative effects in the KRAS independent cell lines A-375 and HEK293 (Fig. 3C, fig. S4F).” for “5 min.”

[7] = molecular target: KRAS^G12V (Homo sapiens, UniProt P01116, G12V); design: endogenous in SW620; KRAS degradation by capillary electrophoresis (Wes) immunodetection; conditions: SW620; 6 h; degrader
Chain of KRAS^G12V (P01116 whole entry G12V): as the sequence (P01116 whole entry) above, with G12V counted along it

[8] = molecular target: T1, KRAS^G12D; design: endogenous or HiBiT-tagged in cells; KRAS degradation by capillary electrophoresis (Wes) immunodetection; conditions: GP2d; 6 h; degrader

T1 sequence (P01116 whole entry G12D): as the sequence (P01116 whole entry) above, with G12D counted along it

DC50 [1] [nM] | Dmax [2] [%] | Kd [3] [nM] | DC50 [4] [nM] | DC50 [5] [nM] | Dmax [6] [%] | DC50 [7] [nM] | DC50 [8] [nM] | Compound
2.1 | 99 |  |  |  |  |  |  | Cc1ncsc1-c1ccc([C@H](CO)NC(=O)[C@@H]2C[C@@H](O)CN2C(=O)[C@H](C(C)C)n2cc(OCCCCN3CCCN(c4nccc(-c5noc([C@@]6(C)CCCc7sc(N)c(C#N)c76)n5)n4)[C@@H](C)C3)nn2)cc1 [compound 7, ACBI3]
31.8 | 96 | 20 ± 3 | > 1000 | 241 | 81 | 159 | 53.4 | Cc1ncsc1-c1ccc(CNC(=O)[C@@H]2C[C@@H](O)CN2C(=O)[C@@H](NC(=O)CCCCCN2CCCN(c3nccc(-c4noc([C@@]5(C)CCCc6sc(N)c(C#N)c65)n4)n3)[C@@H](C)C2)C(C)(C)C)cc1 [compound 3]
0.9 | 96 |  | 86.7 | 25.1 | 86 | 24 | 7.3 | Cc1ncsc1-c1ccc(CNC(=O)[C@@H]2C[C@@H](O)CN2C(=O)[C@@H](c2cc(OCCCCN3CCCN(c4nccc(-c5noc([C@@]6(C)CCCc7sc(N)c(C#N)c76)n5)n4)[C@@H](C)C3)no2)C(C)C)cc1 [compound 4]
607 |  | 15 ± 2 |  |  |  |  |  | Cc1ncsc1-c1ccc(CNC(=O)[C@@H]2C[C@@H](O)CN2C(=O)[C@@H](NC(=O)COCCCN2CCCN(c3nccc(-c4noc([C@@]5(C)CCCc6sc(N)c(C#N)c65)n4)n3)[C@@H](C)C2)C(C)(C)C)cc1 [compound 2]
 | < 15 |  |  |  | < 25 |  |  | Cc1ncsc1-c1ccc(CNC(=O)C2CC(O)CN2C(=O)C(c2cc(OCCCCN3CCCN(c4nccc(-c5noc(C6(C)CCCc7sc(N)c(C#N)c76)n5)n4)C(C)C3)no2)C(C)C)cc1 (stereo not drawn) [compound 5]
